Measurements as given in US7081460B2, “Quinazoline and quinazoline-like compounds for the treatment of integrin-mediated disorders” (Ortho-McNeil Pharmaceutical, Inc., priority 2001, dated 2006).
Like-named read-outs stand apart in the source and are kept apart here.

Experiments:
[1] = biological target: GPIIb/IIIa (Homo sapiens, UniProt P05106+P08514); assay: In vitro solid phase purified glycoprotein IIb/IIIa binding assay (biotinylated fibrinogen)
Method in brief: (§1)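 αvβ3 (1 μg/ml) immobilised in Tris buffer with Ca2+/Mg2+/Mn2+, compounds added 5 min before 5 nM vitronectin, 3 h at 37 °C; bound vitronectin detected by anti-vitronectin antibody/peroxidase ELISA at 490 nm. GPIIb/IIIa coated overnight at 4 °C, biotinylated fibrinogen with compounds 2–4 h RT in modified Tyrodes buffer, avidin-HRP/o-phenylenediamine read at 490 nm.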

[2] = biological target: T1, Human αvβ3 (Homo sapiens, UniProt P05106+P06756); assay: In vitro solid phase purified αvβ3 binding assay (vitronectin/αvβ3)
T1 construct: purchased Chemicon International Inc., Temecula, Calif
Method in brief: as §1

[3] = RGD-affinity purified GPIIb/IIIa, biotinylated fibrinogen, read-out: GPIIb/IIIa Binding IC50
[4] = isolated human αvβ3, 5 nM vitronectin, read-out: αvβ3 Binding IC50

Sequence of GPIIb/IIIa (P08514 32-887 limits assumed): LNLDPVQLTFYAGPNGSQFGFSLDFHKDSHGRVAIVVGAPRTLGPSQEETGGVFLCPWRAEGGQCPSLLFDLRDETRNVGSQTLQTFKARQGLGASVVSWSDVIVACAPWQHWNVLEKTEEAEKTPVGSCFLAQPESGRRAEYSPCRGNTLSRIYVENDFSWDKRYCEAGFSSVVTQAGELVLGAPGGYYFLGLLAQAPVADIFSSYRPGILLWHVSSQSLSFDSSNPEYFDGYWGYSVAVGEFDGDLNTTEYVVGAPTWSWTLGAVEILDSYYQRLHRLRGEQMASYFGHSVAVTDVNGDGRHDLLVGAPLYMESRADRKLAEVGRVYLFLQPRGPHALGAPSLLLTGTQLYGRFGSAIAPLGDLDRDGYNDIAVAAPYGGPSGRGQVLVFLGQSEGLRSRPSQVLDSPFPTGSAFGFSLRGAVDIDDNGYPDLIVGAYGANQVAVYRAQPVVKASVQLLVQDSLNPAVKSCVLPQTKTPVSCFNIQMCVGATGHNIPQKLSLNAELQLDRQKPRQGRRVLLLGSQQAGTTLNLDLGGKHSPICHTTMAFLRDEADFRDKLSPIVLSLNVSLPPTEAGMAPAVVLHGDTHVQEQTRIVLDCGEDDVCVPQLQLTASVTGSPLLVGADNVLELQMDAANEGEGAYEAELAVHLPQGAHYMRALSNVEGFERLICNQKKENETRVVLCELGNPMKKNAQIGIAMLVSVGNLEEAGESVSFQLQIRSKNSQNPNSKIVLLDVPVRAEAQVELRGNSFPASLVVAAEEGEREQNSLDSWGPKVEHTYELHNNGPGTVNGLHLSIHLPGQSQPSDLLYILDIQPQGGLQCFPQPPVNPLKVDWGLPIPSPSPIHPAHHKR
Sequence of GPIIb/IIIa (P08514 891-1039 partner limits assumed): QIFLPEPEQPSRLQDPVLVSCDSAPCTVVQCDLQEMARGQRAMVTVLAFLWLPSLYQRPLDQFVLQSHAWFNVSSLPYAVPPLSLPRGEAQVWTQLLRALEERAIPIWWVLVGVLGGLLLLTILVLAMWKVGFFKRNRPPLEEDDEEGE
Sequence of GPIIb/IIIa (P05106 27-788): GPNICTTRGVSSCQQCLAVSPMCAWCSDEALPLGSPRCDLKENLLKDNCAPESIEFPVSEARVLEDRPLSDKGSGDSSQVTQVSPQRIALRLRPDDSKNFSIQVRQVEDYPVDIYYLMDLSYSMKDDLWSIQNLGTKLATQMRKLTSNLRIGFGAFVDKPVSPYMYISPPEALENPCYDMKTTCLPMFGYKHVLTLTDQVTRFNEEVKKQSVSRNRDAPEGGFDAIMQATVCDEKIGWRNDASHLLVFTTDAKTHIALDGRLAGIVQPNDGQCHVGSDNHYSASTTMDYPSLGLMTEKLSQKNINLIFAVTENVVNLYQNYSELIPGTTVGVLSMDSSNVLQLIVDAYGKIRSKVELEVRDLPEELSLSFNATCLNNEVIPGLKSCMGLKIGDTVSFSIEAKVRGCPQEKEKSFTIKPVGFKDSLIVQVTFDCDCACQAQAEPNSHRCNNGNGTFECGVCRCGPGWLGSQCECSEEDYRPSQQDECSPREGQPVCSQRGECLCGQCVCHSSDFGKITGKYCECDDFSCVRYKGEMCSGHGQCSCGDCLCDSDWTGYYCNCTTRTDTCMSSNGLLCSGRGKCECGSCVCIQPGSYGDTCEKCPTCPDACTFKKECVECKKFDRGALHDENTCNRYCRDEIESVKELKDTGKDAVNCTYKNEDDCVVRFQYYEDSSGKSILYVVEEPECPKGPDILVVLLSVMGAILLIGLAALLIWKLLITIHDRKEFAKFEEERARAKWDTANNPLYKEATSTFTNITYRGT
T1 sequence (P06756 31-889 limits assumed): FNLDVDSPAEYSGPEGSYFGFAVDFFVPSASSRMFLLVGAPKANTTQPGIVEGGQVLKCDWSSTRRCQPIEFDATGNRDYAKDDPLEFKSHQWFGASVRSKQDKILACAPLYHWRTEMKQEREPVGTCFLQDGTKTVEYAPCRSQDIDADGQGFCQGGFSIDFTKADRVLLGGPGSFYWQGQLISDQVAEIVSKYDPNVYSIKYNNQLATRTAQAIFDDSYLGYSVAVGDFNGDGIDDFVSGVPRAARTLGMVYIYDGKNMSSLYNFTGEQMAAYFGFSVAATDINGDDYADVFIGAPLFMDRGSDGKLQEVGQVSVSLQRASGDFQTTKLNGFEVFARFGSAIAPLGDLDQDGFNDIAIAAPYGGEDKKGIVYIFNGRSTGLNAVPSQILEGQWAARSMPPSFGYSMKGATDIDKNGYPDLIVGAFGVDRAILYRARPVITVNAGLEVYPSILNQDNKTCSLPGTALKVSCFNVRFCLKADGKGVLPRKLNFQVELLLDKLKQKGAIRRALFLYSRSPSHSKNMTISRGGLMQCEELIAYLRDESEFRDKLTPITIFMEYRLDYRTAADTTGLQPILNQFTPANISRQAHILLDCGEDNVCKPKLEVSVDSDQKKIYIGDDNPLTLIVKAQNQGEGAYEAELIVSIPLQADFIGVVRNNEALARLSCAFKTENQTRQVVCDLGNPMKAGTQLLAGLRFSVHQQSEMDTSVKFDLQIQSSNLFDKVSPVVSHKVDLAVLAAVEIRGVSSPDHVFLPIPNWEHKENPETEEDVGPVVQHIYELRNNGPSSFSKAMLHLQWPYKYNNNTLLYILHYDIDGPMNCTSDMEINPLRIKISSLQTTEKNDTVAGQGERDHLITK
T1 sequence (P06756 891-1048 partner limits assumed): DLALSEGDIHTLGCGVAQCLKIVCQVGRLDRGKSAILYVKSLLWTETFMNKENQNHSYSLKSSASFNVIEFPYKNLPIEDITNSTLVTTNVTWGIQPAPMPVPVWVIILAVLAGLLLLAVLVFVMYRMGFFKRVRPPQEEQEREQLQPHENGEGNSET
T1 sequence (P05106 27-788): as the sequence (P05106 27-788) above

Row | Structure (SMILES) | IC50 [1, 3] [µM] | IC50 [2, 4] [µM] | IC50 [1] [µM] | IC50 [2] [µM]
1 | COc1ccc(OC)c(S(=O)(=O)N[C@@H](Cc2nc3ccc(/C=C/CNc4ccccn4)cc3c(=O)[nH]2)C(=O)O)c1 [Compound 32, α-[[(2,5-dimethoxyphenyl)sulfonyl]amino]-(αS)-3,4-dihydro-4-oxo-6-[(1E)-3-(2-pyridinylamino)-1-propenyl]-2-quinazolinepropanoic acid] | 3.9 | 0.021 | – | –
2 | O=C(O)[C@H](Cc1nc2ccc(/C=C/CNc3ccccn3)cc2c(=O)[nH]1)NS(=O)(=O)c1ccc(OC(F)(F)F)cc1 [Compound 35, (αS)-3,4-dihydro-4-oxo-6-[(1E)-3-(2-pyridinylamino)-1-propenyl]-α-[[[4-(trifluoromethoxy)phenyl]sulfonyl]amino]-2-quinazolinepropanoic acid] | 4.8 | 0.059 | – | –
3 | Cc1c(C)c(C)c(S(=O)(=O)N[C@@H](Cc2nc3ccc(/C=C/CNC(=O)NC4CCCCC4)cc3c(=O)[nH]2)C(=O)O)c(C)c1C [Compound 75, 6-[(1E)-3-[[(cyclohexylamino)carbonyl]amino]-1-propenyl]-(αS)-3,4-dihydro-4-oxo-α-[[(2,3,4,5,6-pentamethylphenyl)sulfonyl]amino]-2-quinazolinepropanoic acid] | 4.9 | 0.62 | – | –
4 | C/C(=C\NC(=O)NC1CCCCC1)c1ccc2nc(C[C@H](NS(=O)(=O)c3c(C)c(C)c(C)c(C)c3C)C(=O)O)[nH]c(=O)c2c1 [Compound 79, 6-[(E)-2-[[(cyclohexylamino)carbonyl]amino]-1-methylethenyl]-(αS)-3,4-dihydro-4-oxo-α-[[(2,3,4,5,6-pentamethylphenyl)sulfonyl]amino]-2-quinazolinepropanoic acid] | 7.3 | > 0.5 | – | –
5 | Cc1ccc(NC/C=C/c2ccc3nc(C[C@H](NS(=O)(=O)c4c(C)c(C)c(C)c(C)c4C)C(=O)O)[nH]c(=O)c3c2)nc1 [Compound 43, (αS)-3,4-dihydro-6-[(1E)-3-[(5-methyl-2-pyridinyl)amino]-1-propenyl]-4-oxo-α-[[(2,3,4,5,6-pentamethylphenyl)sulfonyl]amino]-2-quinazolinepropanoic acid] | 0.88 | 0.022 | – | –
6 | O=C(O)[C@H](Cc1nc2ccc(/C=C/CNc3ccccn3)cc2c(=O)[nH]1)NS(=O)(=O)c1ccc(S(=O)(=O)c2ccccc2)s1 [Compound 28, (αS)-3,4-dihydro-4-oxo-α-[[[5-(phenylsulfonyl)-2-thienyl]sulfonyl]amino]-6-[(1E)-3-(2-pyridinylamino)-1-propenyl]-2-quinazolinepropanoic acid] | 2.2 | > 0.3 | – | –
7 | CCCCS(=O)(=O)N[C@@H](Cc1nc2ccc(/C=C/CNC(=O)NCc3ccccc3)cc2c(=O)[nH]1)C(=O)O [Compound 73, α-[(butylsulfonyl)amino]-(αS)-3,4-dihydro-4-oxo-6-[(1E)-3-[[[(phenylmethyl)amino]carbonyl]amino]-1-propenyl]-2-quinazolinepropanoic acid] | > 50 | 2 | – | –
8 | Cc1ccnc(NC/C=C/c2ccc3nc(C[C@H](NC(=O)OCc4ccccc4)C(=O)O)[nH]c(=O)c3c2)c1 [Compound 69, (αS)-3,4-dihydro-6-[(1E)-3-[(4-methyl-2-pyridinyl)amino]-1-propenyl]-4-oxo-α-[[(phenylmethoxy)carbonyl]amino]-2-quinazolinepropanoic acid] | 18 | 0.49 | – | –
9 | Cc1c(C)c(C)c(S(=O)(=O)N[C@@H](Cc2nc3ccc(/C=C/CNC4=NCCC4)cc3c(=O)[nH]2)C(=O)O)c(C)c1C [Compound 15, 6-[(1E)-3-[(3,4-dihydro-2H-pyrrol-5-yl)amino]-1-propenyl]-(αS)-3,4-dihydro-4-oxo-α-[[(2,3,4,5,6-pentamethylphenyl)sulfonyl]amino]-2-quinazolinepropanoic Acid] | 0.077 | 0.018 | – | –
10 | COc1ccc(S(=O)(=O)N[C@@H](Cc2nc3ccc(/C=C/CNc4ccccn4)cc3c(=O)[nH]2)C(=O)O)cc1 [Compound 26, (αS)-3,4-dihydro-α-[[(4-methoxyphenyl)sulfonyl]amino]-4-oxo-6-[(1E)-3-(2-pyridinylamino)-1-propenyl]-2-quinazolinepropanoic acid] | 1.3 | 0.015 | – | –
11 | O=C(N[C@@H](Cc1nc2ccc(/C=C/CCNC3=NCCN3)cc2c(=O)[nH]1)C(=O)O)OCc1ccccc1 [Compound 8, 6-[(1E)-4-[(4,5-dihydro-1H-imidazol-2-yl)amino]-1-butenyl]-(αS)-3,4-dihydro-4-oxo-α-[[(phenylmethoxy)carbonyl]amino]-2-quinazolinepropanoic Acid] | 0.58 | 0.21 | – | –
12 | COc1ccc(OC(=O)N[C@@H](Cc2nc3ccc(/C=C/CNC4=NCCN4)cc3c(=O)[nH]2)C(=O)O)cc1 [Compound 63, 6-[(1E)-3-[(4,5-dihydro-1H-imidazol-2-yl)amino]-1-propenyl]-(αS)-3,4-dihydro-α-[[(4-methoxyphenoxy)carbonyl]amino]-4-oxo-2-quinazolinepropanoic acid] | – | – | 0.95 | 0.1
13 | Cc1c(C)c(C)c(S(=O)(=O)N[C@@H](Cc2nc3ccc(/C=C/CNC(=O)NC4C[C@H]4c4ccccc4)cc3c(=O)[nH]2)C(=O)O)c(C)c1C (stereo partly drawn) [Compound 66, (αS)-3,4-dihydro-4-oxo-α-[[(2,3,4,5,6-pentamethylphenyl)sulfonyl]amino]-6-[(1E)-3-[[[[(2S)-2-phenylcyclopropyl]amino]carbonyl]amino]-1-propenyl]-2-quinazolinepropanoic acid] | 0.78 | 0.21 | – | –
14 | Cc1cccc(Cl)c1S(=O)(=O)N[C@@H](Cc1nc2ccc(/C=C/CNc3ccccn3)cc2c(=O)[nH]1)C(=O)O [Compound 29, α-[[(2-chloro-6-methylphenyl)sulfonyl]amino]-(αS)-3,4-dihydro-4-oxo-6-[(1E)-3-(2-pyridinylamino)-1-propenyl]-2-quinazolinepropanoic acid] | 0.24 | 0.038 | – | –
15 | Cc1c(C)c(C)c(S(=O)(=O)N[C@@H](Cc2nc3ccc(/C=C/CNC4=NCCCC4)cc3c(=O)[nH]2)C(=O)O)c(C)c1C [Compound 52, (αS)-3,4-dihydro-4-oxo-α-(α^2S)-[[(2,3,4,5,6-pentamethylphenyl)sulfonyl]amino]-6-[(1E)-3-[(3,4,5,6-tetrahydro-2-pyridinyl)amino]-1-propenyl]-2-quinazolinepropanoic acid] | 0.11 | 0.024 | – | –
16 | O=C(O)[C@H](Cc1nc2ccc(/C=C/CNc3ccccn3)cc2c(=O)[nH]1)NS(=O)(=O)c1ccc(-c2ccon2)s1 [Compound 31, (αS)-3,4-dihydro-α-[[[5-(3-isoxazolyl)-2-thienyl]sulfonyl]amino]-4-oxo-6-[(1E)-3-(2-pyridinylamino)-1-propenyl]-2-quinazolinepropanoic acid] | 1.8 | 0.07 | – | –
17 | CC(C)(C)OC(=O)N[C@@H](Cc1nc2ccc(/C=C/CNC3=NCCCCC3)cc2c(=O)[nH]1)C(=O)O [Compound 71, α-[[(1,1-dimethylethoxy)carbonyl]amino]-(αS)-3,4-dihydro-4-oxo-6-[(1E)-3-[(3,4,5,6-tetrahydro-2H-azepin-7-yl)amino]-1-propenyl]-2-quinazolinepropanoic acid] | 12 | 0.96 | – | –
18 | Cc1cc(C)c(S(=O)(=O)N[C@@H](Cc2nc3ccc(/C=C/CNC4=NCCN4)cc3c(=O)[nH]2)C(=O)O)c(C)c1 [Compound 3, 6-[(1E)-3-[(4,5-dihydro-1H-imidazol-2-yl)amino]-1-propenyl]-(αS)-3,4-dihydro-4-oxo-a-[[(2,4,6-trimethylphenyl)sulfonyl]amino]-2-quinazolinepropanoic Acid] | 0.078 | 0.0032 | – | –
19 | COc1ccc(S(=O)(=O)N[C@@H](Cc2nc3ccc(/C=C/CNC(=O)NCc4ccccc4)cc3c(=O)[nH]2)C(=O)O)cc1 [Compound 57, (αS)-3,4-dihydro-α-[[(4-methoxyphenyl)sulfonyl]amino]-4-oxo-6-[(1E)-3-[[[(phenylmethyl)amino]carbonyl]amino]-1-propenyl]-2-quinazolinepropanoic acid] | 3.7 | 0.043 | – | –
20 | O=C(O)[C@H](Cc1nc2ccc(/C=C/CNc3ccccn3)cc2c(=O)[nH]1)NS(=O)(=O)c1ccc2ccccc2c1 [Compound 24, (αS)-3,4-dihydro-α-[(2-naphthalenylsulfonyl)amino]-4-oxo-6-[(1E)-3-(2-pyridinylamino)-1-propenyl]-2-quinazolinepropanoic acid] | 1.4 | 0.023 | – | –
21 | Cc1ccnc(NC/C=C/c2ccc3nc(C[C@H](NS(=O)(=O)c4c(C)c(C)c(C)c(C)c4C)C(=O)O)[nH]c(=O)c3c2)c1 [Compound 45, (αS)-3,4-dihydro-6-[(1E)-3-[(4-methyl-2-pyridinyl)amino]-1-propenyl]-4-oxo-α-[[(2,3,4,5,6-pentamethylphenyl)sulfonyl]amino]-2-quinazolinepropanoic acid] | 1.8 | 0.015 | – | –
22 | Cc1c(C)c(C)c(S(=O)(=O)N[C@@H](Cc2nc3ccc(/C=C/CNC(N)=O)cc3c(=O)[nH]2)C(=O)O)c(C)c1C [Compound 53, 6-[(1E)-3-[(aminocarbonyl)amino]-1-propenyl]-(αS)-3,4-dihydro-4-oxo-α-[[(2,3,4,5,6-pentamethylphenyl)sulfonyl]amino]-2-quinazolinepropanoic acid] | 0.2 | 0.031 | – | –
23 | Cc1c(C)c(C)c(S(=O)(=O)N[C@@H](Cc2nc3ccc(/C=C/CNc4nccn4C)cc3c(=O)[nH]2)C(=O)O)c(C)c1C [Compound 30, (αS)-3,4-dihydro-6-[(1E)-3-[(1-methyl-1H-imidazol-2-yl)amino]-1-propenyl]-4-oxo-α-[[(2,3,4,5,6-pentamethylphenyl)sulfonyl]amino]-2-quinazolinepropanoic acid] | 0.083 | 0.2 | – | –
